{"source": "patent US20260027068A1", "about": "“METHODS OF ADM[…]-KETAMINE” (Perception Neuroscience, Inc., priority 2022, published 2026)", "assay": "Respiratory rate (vital signs)", "details": "30 mg", "description": "The Investigational Medicinal Product (IMP) R(−)-ketamine hydrochloride in sterile water for intravenous injection was investigated as an […] treatment of TRD. The International Union of Pure and Applied Chemistry (IUPAC) name is of the IMP is (2R)-2-(2-chlorophenyl)-2-(methylamino)cyclohexan-1-one. Subjects received the solution at either 30 mg or 60 mg dose, or a placebo. The IMP or placebo was administered on Day 1 as a single IV infusion via an electronic infusion pump over 40 minutes. The duration of study participation for each subject was up to 29 days including a screening period, a 3-day in-clinic visit, and 2 follow-up visits. 101 subjects were enrolled in approximately 20 study centers in the EU and the US.\nTympanic or temporal temperature, heart rate, blood pressure (SBP/DBP), respiratory rate, and SpO2 were assessed. Blood pressure and pulse measurements will be assessed with a completely automated device while the subject is supine or semi-supine. Manual techniques will be used only if an automated device is not available. Blood pressure and pulse measurements should be preceded by at least 5 minutes of rest for the subject in a quiet setting without distractions (e.g., television, cell phones). An abnormal blood pressure value at screening may be repeated once after 5 minutes of relaxation to determine the subject's eligibility. Blood pressure was recorded using the same arm and position (supine or semi-supine) throughout the study, where possible. Vital signs (to be taken before blood collection for laboratory tests) consisted of 1 pulse and 3 blood pressure measurements (3 consecutive blood pressure readings will be recorded at intervals of at least 1 minute). The average of the 3 blood pressure readings was recorded in the CRF. A pulse oximeter was used to measure peripheral capillary oxygen saturation (SpO2) continuously from pre-dose until 4-hours post-dose. A pulse oximeter was clipped onto the finger or foot of the subject, and light will be sent through the finger or foot and measured on the other side.\nIn these tables, baseline value is defined as the last non-missing value prior to study drug administration."}
{"compound": "CN[C@@]1(c2ccccc2Cl)CCCCC1=O.Cl", "note": "[R(−)-ketamine, (2R)-2-(2-chlorophenyl)-2-(methylamino)cyclohexan-1-one]", "values": [{"measurement": "Respiratory Rate, Max", "setting": "Day 1, 15 minutes", "result": 22, "unit": "breaths/minute"}, {"measurement": "Respiratory Rate, Mean", "setting": "Day 1, 15 minutes", "result": 16.0, "unit": "breaths/minute"}, {"measurement": "Respiratory Rate, Median", "setting": "Day 1, 15 minutes", "result": 16.0, "unit": "breaths/minute"}, {"measurement": "Respiratory Rate, Min", "setting": "Day 1, 15 minutes", "result": 14, "unit": "breaths/minute"}, {"measurement": "Respiratory Rate, Max", "setting": "Day 1, 40 minutes", "result": 18, "unit": "breaths/minute"}, {"measurement": "Respiratory Rate, Mean", "setting": "Day 1, 40 minutes", "result": 15.7, "unit": "breaths/minute"}, {"measurement": "Respiratory Rate, Median", "setting": "Day 1, 40 minutes", "result": 16.0, "unit": "breaths/minute"}, {"measurement": "Respiratory Rate, Min", "setting": "Day 1, 40 minutes", "result": 13, "unit": "breaths/minute"}, {"measurement": "Respiratory Rate, Max", "setting": "Day 1, 60 minutes", "result": 17, "unit": "breaths/minute"}, {"measurement": "Respiratory Rate, Mean", "setting": "Day 1, 60 minutes", "result": 15.4, "unit": "breaths/minute"}, {"measurement": "Respiratory Rate, Median", "setting": "Day 1, 60 minutes", "result": 15.5, "unit": "breaths/minute"}, {"measurement": "Respiratory Rate, Min", "setting": "Day 1, 60 minutes", "result": 14, "unit": "breaths/minute"}, {"measurement": "Respiratory Rate, Max", "setting": "Day 1, 2 hours", "result": 18, "unit": "breaths/minute"}, {"measurement": "Respiratory Rate, Mean", "setting": "Day 1, 2 hours", "result": 15.9, "unit": "breaths/minute"}, {"measurement": "Respiratory Rate, Median", "setting": "Day 1, 2 hours", "result": 16.0, "unit": "breaths/minute"}, {"measurement": "Respiratory Rate, Min", "setting": "Day 1, 2 hours", "result": 13, "unit": "breaths/minute"}, {"measurement": "Respiratory Rate, Max", "setting": "Day 1, 4 hours", "result": 21, "unit": "breaths/minute"}, {"measurement": "Respiratory Rate, Mean", "setting": "Day 1, 4 hours", "result": 16.1, "unit": "breaths/minute"}, {"measurement": "Respiratory Rate, Median", "setting": "Day 1, 4 hours", "result": 16.0, "unit": "breaths/minute"}, {"measurement": "Respiratory Rate, Min", "setting": "Day 1, 4 hours", "result": 14, "unit": "breaths/minute"}, {"measurement": "Respiratory Rate, Max", "setting": "Day 1, 6 hours", "result": 18, "unit": "breaths/minute"}, {"measurement": "Respiratory Rate, Mean", "setting": "Day 1, 6 hours", "result": 15.9, "unit": "breaths/minute"}, {"measurement": "Respiratory Rate, Median", "setting": "Day 1, 6 hours", "result": 16.0, "unit": "breaths/minute"}, {"measurement": "Respiratory Rate, Min", "setting": "Day 1, 6 hours", "result": 14, "unit": "breaths/minute"}, {"measurement": "Respiratory Rate, Max", "setting": "Day 2 - Discharge", "result": 21, "unit": "breaths/minute"}, {"measurement": "Respiratory Rate, Mean", "setting": "Day 2 - Discharge", "result": 15.9, "unit": "breaths/minute"}, {"measurement": "Respiratory Rate, Median", "setting": "Day 2 - Discharge", "result": 16.0, "unit": "breaths/minute"}, {"measurement": "Respiratory Rate, Min", "setting": "Day 2 - Discharge", "result": 14, "unit": "breaths/minute"}, {"measurement": "Respiratory Rate, Max", "setting": "Day 8", "result": 18, "unit": "breaths/minute"}, {"measurement": "Respiratory Rate, Mean", "setting": "Day 8", "result": 15.9, "unit": "breaths/minute"}, {"measurement": "Respiratory Rate, Median", "setting": "Day 8", "result": 16.0, "unit": "breaths/minute"}, {"measurement": "Respiratory Rate, Min", "setting": "Day 8", "result": 14, "unit": "breaths/minute"}, {"measurement": "Respiratory Rate, Max", "setting": "Day 15", "result": 18, "unit": "breaths/minute"}, {"measurement": "Respiratory Rate, Mean", "setting": "Day 15", "result": 15.7, "unit": "breaths/minute"}, {"measurement": "Respiratory Rate, Median", "setting": "Day 15", "result": 16.0, "unit": "breaths/minute"}, {"measurement": "Respiratory Rate, Min", "setting": "Day 15", "result": 14, "unit": "breaths/minute"}, {"measurement": "Respiratory Rate, Change from Baseline, Max", "setting": "to Day 1, 15 minutes", "result": 3, "unit": "breaths/minute"}, {"measurement": "Respiratory Rate, Change from Baseline, Mean", "setting": "to Day 1, 15 minutes", "result": 0.1, "unit": "breaths/minute"}, {"measurement": "Respiratory Rate, Change from Baseline, Median", "setting": "to Day 1, 15 minutes", "result": 0.0, "unit": "breaths/minute"}, {"measurement": "Respiratory Rate, Change from Baseline, Min", "setting": "to Day 1, 15 minutes", "result": "−3", "unit": "breaths/minute"}, {"measurement": "Respiratory Rate, Change from Baseline, Max", "setting": "to Day 1, 40 minutes", "result": 2, "unit": "breaths/minute"}, {"measurement": "Respiratory Rate, Change from Baseline, Mean", "setting": "to Day 1, 40 minutes", "result": "−0.2", "unit": "breaths/minute"}, {"measurement": "Respiratory Rate, Change from Baseline, Median", "setting": "to Day 1, 40 minutes", "result": 0.0, "unit": "breaths/minute"}, {"measurement": "Respiratory Rate, Change from Baseline, Min", "setting": "to Day 1, 40 minutes", "result": "−5", "unit": "breaths/minute"}, {"measurement": "Respiratory Rate, Change from Baseline, Max", "setting": "to Day 1, 60 minutes", "result": 3, "unit": "breaths/minute"}, {"measurement": "Respiratory Rate, Change from Baseline, Mean", "setting": "to Day 1, 60 minutes", "result": "−0.4", "unit": "breaths/minute"}, {"measurement": "Respiratory Rate, Change from Baseline, Median", "setting": "to Day 1, 60 minutes", "result": 0.0, "unit": "breaths/minute"}, {"measurement": "Respiratory Rate, Change from Baseline, Min", "setting": "to Day 1, 60 minutes", "result": "−5", "unit": "breaths/minute"}, {"measurement": "Respiratory Rate, Change from Baseline, Max", "setting": "to Day 1, 2 hours", "result": 3, "unit": "breaths/minute"}, {"measurement": "Respiratory Rate, Change from Baseline, Mean", "setting": "to Day 1, 2 hours", "result": "−0.1", "unit": "breaths/minute"}, {"measurement": "Respiratory Rate, Change from Baseline, Median", "setting": "to Day 1, 2 hours", "result": 0.0, "unit": "breaths/minute"}, {"measurement": "Respiratory Rate, Change from Baseline, Min", "setting": "to Day 1, 2 hours", "result": "−2", "unit": "breaths/minute"}, {"measurement": "Respiratory Rate, Change from Baseline, Max", "setting": "to Day 1, 4 hours", "result": 2, "unit": "breaths/minute"}, {"measurement": "Respiratory Rate, Change from Baseline, Mean", "setting": "to Day 1, 4 hours", "result": 0.2, "unit": "breaths/minute"}, {"measurement": "Respiratory Rate, Change from Baseline, Median", "setting": "to Day 1, 4 hours", "result": 0.0, "unit": "breaths/minute"}, {"measurement": "Respiratory Rate, Change from Baseline, Min", "setting": "to Day 1, 4 hours", "result": "−2", "unit": "breaths/minute"}, {"measurement": "Respiratory Rate, Change from Baseline, Max", "setting": "to Day 1, 6 hours", "result": 2, "unit": "breaths/minute"}, {"measurement": "Respiratory Rate, Change from Baseline, Mean", "setting": "to Day 1, 6 hours", "result": "−0.0", "unit": "breaths/minute"}, {"measurement": "Respiratory Rate, Change from Baseline, Median", "setting": "to Day 1, 6 hours", "result": 0.0, "unit": "breaths/minute"}, {"measurement": "Respiratory Rate, Change from Baseline, Min", "setting": "to Day 1, 6 hours", "result": "−3", "unit": "breaths/minute"}, {"measurement": "Respiratory Rate, Change from Baseline, Max", "setting": "to Day 2 - Discharge", "result": 1, "unit": "breaths/minute"}, {"measurement": "Respiratory Rate, Change from Baseline, Mean", "setting": "to Day 2 - Discharge", "result": "−0.1", "unit": "breaths/minute"}, {"measurement": "Respiratory Rate, Change from Baseline, Median", "setting": "to Day 2 - Discharge", "result": 0.0, "unit": "breaths/minute"}, {"measurement": "Respiratory Rate, Change from Baseline, Min", "setting": "to Day 2 - Discharge", "result": "−4", "unit": "breaths/minute"}, {"measurement": "Respiratory Rate, Change from Baseline, Max", "setting": "to Day 8", "result": 3, "unit": "breaths/minute"}, {"measurement": "Respiratory Rate, Change from Baseline, Mean", "setting": "to Day 8", "result": "−0.1", "unit": "breaths/minute"}, {"measurement": "Respiratory Rate, Change from Baseline, Median", "setting": "to Day 8", "result": 0.0, "unit": "breaths/minute"}, {"measurement": "Respiratory Rate, Change from Baseline, Min", "setting": "to Day 8", "result": "−5", "unit": "breaths/minute"}, {"measurement": "Respiratory Rate, Change from Baseline, Max", "setting": "to Day 15", "result": 1, "unit": "breaths/minute"}, {"measurement": "Respiratory Rate, Change from Baseline, Mean", "setting": "to Day 15", "result": "−0.3", "unit": "breaths/minute"}, {"measurement": "Respiratory Rate, Change from Baseline, Median", "setting": "to Day 15", "result": 0.0, "unit": "breaths/minute"}, {"measurement": "Respiratory Rate, Change from Baseline, Min", "setting": "to Day 15", "result": "−6", "unit": "breaths/minute"}]}
